Source: paper PMC9145754, “Novel Soloxolone Amides as Potent Anti-Glioblastoma Candidates: Design, Synthesis, In Silico Analysis and Biological Activities In Vitro and In Vivo” (Pharmaceuticals, 2022)

Legend:
[1] = test system: U118 cells; test: Mitochondrial membrane potential, JC-1; assay type: cell-based, human; conditions: for percentage of U118 cells with collapsed ΔψM: 12 at 4 µM, JC-1, control 4.7%
Protocol: It is known that structural analogs of compound 12, such as SM, bardoxolone methyl and CDDO-Im, trigger the mitochondrial pathway of apoptosis in tumor cells, leading to significant dissipation of mitochondrial membrane potential (ΔψM). To evaluate the ability of 12 to affect ΔψM in glioblastoma cells, U118 cells were incubated with 12 (4 µM) for 6 and 24 h and stained with JC-1, a fluorescent probe accumulated either within highly polarized mitochondria emitting red fluorescence (JC-1 aggregates) or in cytoplasm, in the case of low ΔψM (JC-1 monomers, green fluorescence).
[…] were cultured in 6-well plates for 24 h, incubated overnight under standard conditions and treated with 12 at 4 μM for 6 and 24 h. Thereafter, the cells were harvested, resuspended at 10^6 cell/mL in JC-1-containing PBS (5 µg/mL) and incubated under standard conditions for 30 min followed by the washing of the cells with PBS and flow cytometry analysis. In total, 10,000 events were acquired for each sample.

[2] = test system: hFF3 foreskin fibroblasts; test: MTT cytotoxicity assay, hFF3 fibroblasts; assay type: cell-based, human; conditions: Homo sapiens, HFF-3, 24 h
Protocol: (§1) In the first step of the study, we analyzed the cytotoxicity of novel soloxolone derivatives 1–12 in a panel of tumor cells, including human cervical carcinoma HeLa, human duodenal carcinoma HuTu-80 and murine melanoma B16 cells, as well as human non-transformed hFF3 foreskin fibroblasts. The cells were treated with derivatives for 24 h and cell viability was evaluated by 3-(4,5-dimethylthiazol-2-yl)-2,5-diphenyltetrazolium bromide (MTT) assay. SM was used as the reference compound.
(§2) The cells in the exponential growth phase were seeded in quadruplicate in 96-well plates at a density of 1 × 10^4 cells/well for HeLa, U87, U118, KELLY and Neuro2a cells; 1.5 × 10^4 cells/well for HuTu-80 cells; 2 × 10^4 cells/well for B16 cells; and 7 × 10^3 cells/well for hFF3 fibroblasts. Cells were incubated under standard conditions overnight followed by their treatment with the investigated compounds (1–20 µM) for 24 h. Then, 10 µL of MTT solution was added to the cells to a final concentration of 0.5 mg/mL and plates were placed under standard conditions for 3 h followed by an aspiration of MTT-containing medium and a dissolution of formazan crystals with 100 µL of DMSO. The absorbance of each well was read at test and reference wavelengths of 570 and 620 nm, respectively, on a Multiscan RC plate reader (Thermo LabSystems, Helsinki, Finland).

[3] = test system: B16 cells; test: MTT cytotoxicity assay, B16; assay type: cell-based, murine; conditions: Mus musculus, 24 h, read-out: IC50, Melanoma, B16
Protocol: as §1, §2

[4] = Toxicity assessment (body weight, organ indexes); assay type: in vivo, Balb/C nude mice
Protocol: (seven injections were performed in total) and brain tissue was collected 48 h after the last injection of 12 followed by a high-performance liquid chromatography–tandem mass spectrometry (HPLC–MS/MS) analysis of the obtained samples (Figure 3D). This treatment regimen was chosen due to its common usage in the evaluation of antitumor activity of various low-molecular weight compounds in xenograft murine models. […] Before the HPLC–MS/MS analysis, chromatographic conditions and mass spectrometer parameters for detecting both semisynthetic triterpenoid 12 and the internal standard in the multiple reaction monitoring (MRM) mode were optimized. The optimized parameters are given in Supplementary Table S1.
During the experiment, the general status of the animals and body weight was monitored. At the end of the experiment, organs were collected and organ indexes were calculated as (organ weight/body weight) × 100%.

[5] = test system: U118 cells; test: Trans-well motility (CIM-Plate, xCELLigence); assay type: cell-based, human; conditions: U118, 12 at 100 nM, starting after 20 h
Protocol: To evaluate the ability of tryptamide 12 to suppress the migration potential of glioblastoma cells, two independent approaches were undertaken, including assessment of cell movement on a 2D surface (scratch assay) and through a trans-well membrane (CIM-Plate).
To assess the trans-well motility of glioblastoma cells, U118 cells were seeded in quadruplicate at 2 × 10^4 cells/well in the upper chamber of a CIM-Plate in FBS-free DMEM in the presence or absence of 12 at 100 nM. To induce trans-well motility of the cells, DMEM containing 10% FBS was placed in the lower chamber of the CIM-Plate. After that, the electrical impedance of the sensor electrodes mounted at the lower side of the porous membrane separating the upper and lower chambers of the CIM-plate was further measured using an xCELLigence RTCA DP instrument (ACEA Biosciences Inc., San Diego, CA, USA) every 1 h for 48 h.

[6] = test system: caspase-3 and -7; test: Caspase-3/-7 activation (CellEvent reagent, flow cytometry); assay type: cell-based, human; conditions: U87 cells
Protocol: To double check the pro-apoptotic activity of 12, its effect on the activation of executioner caspase-3 and -7, key markers of apoptosis, was evaluated in glioblastoma U87 cells.
U87 cells were plated at a density of 2.8 × 10^5 cells/well in 6-well plates and treated with 12 at 2 and 4 μM for 6 and 24 h. Then, the cells were collected by trypsinization and centrifugation, washed with PBS and stained with CellEvent™ Caspase-3/7 Green ReadyProbes™ Reagent (Molecular Probes, Eugene, OR, USA) according to the manufacturer’s manual. Briefly, harvested cells were resuspended in 200 μL of PBS containing the reagent (1 drop/mL) and incubated for 30 min at room temperature. After that, flow cytometry analysis of the cells was performed using the NovoCyte Flow Cytometer. In total, 10,000 events were acquired for each sample.

[7] = test system: U87 cells; test: Mitochondrial membrane potential/apoptosis, MitoTracker Red and Annexin V; assay type: cell-based, human; conditions: U87, 12 at 4 µM, control 5.7%
Protocol: In order to doublecheck the ΔψM-targeted effect of 12 and to assess the correlation between dissipation of ΔψM and induction of apoptosis in triterpenoid-treated glioblastoma cells, U87 cells were incubated with 12 at 4 µM for 6–24 h followed by their staining with a mix of MitoTracker Red, a fluorescent dye accumulated within mitochondria depending on their ΔψM, and fluorophore-conjugated annexin V, used to visualize apoptotic cells.
[…] cells plated in 6-well plates were treated with 12 at 4 μM for 6, 18 and 24 h and stained using a Mitochondrial Membrane Potential/Annexin V Apoptsis Kit (Molecular Probes, USA) according to the manufacturer’s instructions. Briefly, harvested cells were incubated in Annexin-binding buffer containing MitoTracker Red at 40 nM for 30 min under standard conditions. After that, the cells were washed with PBS, resuspended in Annexin-binding buffer containing 5 µL of Annexin V-Alexa Fluor 488 and incubated at room temperature for 15 min. After the incubation time, the cells were analyzed by flow cytometry. For each sample, 10,000 events were acquired.

CC1(C)C(=O)C(C#N)=C[C@]2(C)C3=CC(=O)[C@@H]4[C@@H]5C[C@@](C)(C(=O)NCCc6c[nH]c7ccccc67)CC[C@]5(C)CC[C@@]4(C)[C@]3(C)CC[C@@H]12 [compound 12]
percentage of U118 cells with collapsed ΔψM ([1]; 6 h): 7.5%
percentage of U118 cells with collapsed ΔψM ([1]; 24 h): 20.4%
JC-1 aggregate/monomer ratios ([1]; U118, 12 at 4 µM): significantly reduced
IC50 [2]: 1400 ± 200 nM
IC50 [3]: 1500 ± 200 nM
organ indexes in experimental and control groups ([4]; U87 glioblastoma-bearing mice, 20 mg/kg i.p.): did not reveal significant differences
mouse body weight compared to untreated mice ([4]; nude mice, 50 mg/kg i.p., thrice a week for two weeks): did not reveal significant changes
ability of cells to cross the porous membrane of the CIM-Plate [5]: significantly suppressed
activation of caspase-3 and -7 [6]: effectively activated caspase-3 and -7 in a time-dependent manner
percentage of apoptotic cells with dissipated ΔψM ([7]; 6 h): 12.2%
percentage of apoptotic cells with dissipated ΔψM ([7]; 18 h): 18.7%
percentage of apoptotic cells with dissipated ΔψM ([7]; 24 h): 28%
